Measured values from patent US4847303A, “Tert-butylphenyl compounds useful as anti-inflammatory agents” (The Procter & Gamble Company, priority 1987, dated 1989).

Test system: Carrageenan Rat Paw Edema
Assay: Carrageenan Rat Paw Edema Test
Assay type: in vivo, rat (male Sprague-Dawley)
Conditions: 100 mg/kg P.O.; carrageenan 1 h after dosing, paw volume 4 h after carrageenan; all values statistically significant from control at P ≤ 0.05
Protocol: Carrageenan Rat Paw Edema Test
Male Sprague-Dawley rats (Charles River Laboratories) are weighed and food fasted overnight. The animals are then divided into four to six groups of six animals each according to body weights (average about 145 g) so that each group has about the same average body weight (within 10 g).
The following morning animals are dosed with the test compound and then placed in individual cages. For oral dosing, the drug is suspended in 0.5% methyl cellulose with 2% Tween 80, and delivered via stomach tube in a 5 ml volume.
Paw volumes (0 time) are determined on both hind paws with a mercury displacement device equipped with a transducer and digitizer. One hour after dosing the test compound, the animals are placed in a plastic restrainer and 50 ul of a 1% (w/w) carrageenan solution in 0.9% saline is injected into the ventral surface of the left rear paw. Four hours after the carrageenan injection, the paw volumes are again determined.
The results are expressed as percent inhibition of the mean paw volume of the test group relative to the control group. Statistical differences are determined by one way analysis of variance.

Question: How did the “Percent Inhibition at 100 mg/kg dosed P.O (mean paw volume of the test group relative to the control group)” value turn out when `C#CCCCC(=O)c1cc(C(C)(C)C)c(O)c(C(C)(C)CO)c1` [Example 2, 2-(2-hydroxy-1,1-dimethyl-ethyl)-4-(5'-hexynoyl)-6-t-butylphenol] was run?
Answer: 48.4%

Question: `C#CCCCC(=O)c1cc(CC=C)c(O)c(C(C)(C)C)c1` [Example 3, 1-Allyl-4-(5'-hexynoyl)-6-t-butylphenol] was tested. Which “Percent Inhibition at 100 mg/kg dosed P.O (mean paw volume of the test group relative to the control group)” value did it give?
Answer: 65.8%

Question: For `C#CCCCC(=O)c1cc(C(C)C=C)c(O)c(C(C)(C)C)c1` (stereo not drawn) [Example 5, 2-s-(3-butenyl)-4-(5'-hexynoyl)-6-t-butylphenol], which “Percent Inhibition at 100 mg/kg dosed P.O (mean paw volume of the test group relative to the control group)” value is on record?
Answer: 90.8%

Question: `C#CCCCC(=O)c1cc(C(C)CC)c(O)c(C(C)(C)C)c1` (stereo not drawn) [Example 6, 2-s-butyl-4-(5'-hexynoyl)-6-t-butylphenol] was tested. Which “Percent Inhibition at 100 mg/kg dosed P.O (mean paw volume of the test group relative to the control group)” value did it give?
Answer: 51.5%

Question: How did the “Percent Inhibition at 100 mg/kg dosed P.O (mean paw volume of the test group relative to the control group)” value turn out when `C#CCCCC(=O)c1cc(CCC)c(O)c(C(C)(C)C)c1` [Example 4, 2-n-propyl-4-(5'-hexynoyl)-6-t-butylphenol] was run?
Answer: 53.2%

Question: With `C#CCCCC(=O)c1cc(C)c(O)c(C(C)(C)C)c1` [Example 1, 2-methyl-4-(5'-hexynoyl)-6-t-butylphenol] as the compound, how does the “Percent Inhibition at 100 mg/kg dosed P.O (mean paw volume of the test group relative to the control group)” value read?
Answer: 75.4%
